In general, IC50 refers to the concentration that gives 50% inhibition.

Assay [1] has as its target Ba/F3 EGFR-Del19/T790M/C797S (Homo sapiens, UniProt P00533, T790M/C797S, cells depend on it, form not given). The assay is described as follows: Ba/F3 viability assay (CellTiter-Glo), EGFR-Del19/T790M/C797S (DTC). To be noted: Ba/F3 EGFR-Del19/T790M/C797S anti-proliferation; read-out: BAF3 DTC IC50. It is filed as cell-based. The source says:
(§1) Inhibition of cell proliferation can be studied using Ba/F3 viability assays, including the Promega CellTiter-Glo cell viability assay. This assay can be used to study the effect of compounds described herein in the following assays: (1) Ba/F3 Parental; (2) Ba/F3 EGFR-Del19/T790M; (3); Ba/F3 EGFR-Del19/C797S; and (4) Ba/F3 EGFR-Del119/T790M/C797S.
(§2) One hundred thirty six compounds were studied using the kinase (EGFR) and BA/F3 assays described herein, with more than 60% of the tested compounds providing IC50<50 nM values in all six assays. Accordingly, compounds of the invention are a new general class of kinase inhibitors, including potent inhibitors of EGFR mutants.
(§3) Exemplary kinase inhibition (Kinase) and anti-proliferation activity (Ba/F3) data are shown in Table 1 for certain compounds of the invention and are categorized according to the below legend.
(Cellular ATP, detected with luciferase, serves as a proxy for viable cell number.)

Assay [2] addresses EGFR^L858R/T790M/C797S (Homo sapiens, UniProt P00533, C797S/L858R/T790M). The assay is described as follows: HTRF KinEASE-TK in vitro kinase assay, EGFR L858R/T790M/C797S (LTC). It counts as biochemical. To be noted: EGFR L858R/T790M/C797S kinase inhibition.
Text: (§4) The biological activity of compounds described herein can be studied according to standard methods known in the art. Methods can be used to study inhibition of EGFR, including mutant forms of EGFR comprising L858R, T790M, C797S, and/or Del19 mutations, or any combination thereof (e.g., L858R single, double, or triple mutants). Exemplary, non-limiting methods are described herein.
(§5) Assays using an in vitro kinase assay kit (HTRF KinEASE-TK kit) can be used to study the inhibitory activity of compounds described herein with respect to EGFR mutants such as ECFR^L858R, EGFR^L858R/T790M, and EGFR^L858R/T790M/C797S.
as §2, §3

In assay [3] the target is Ba/F3 EGFR-Del19/T790M (Homo sapiens, UniProt P00533, T790M, cells depend on it, form not given). The assay is described as follows: Ba/F3 viability assay (CellTiter-Glo), EGFR-Del19/T790M (DT). To be noted: Ba/F3 EGFR-Del19/T790M anti-proliferation; read-out: BAF3 DT IC50. It is filed as cell-based.
Text: as §1, §2, §3

In assay [4] the target is EGFR^L858R (Homo sapiens, UniProt P00533, L858R). The assay is described as follows: HTRF KinEASE-TK in vitro kinase assay, EGFR L858R (L). It is filed as biochemical. To be noted: EGFR L858R kinase inhibition.
Text: as §4, §5, §2, §3
(In general: TR-FRET usually uses a lanthanide donor and a delayed reading to cut background.)

In assay [5] the target is EGFR^L858R/T790M (Homo sapiens, UniProt P00533, L858R/T790M). The assay is described as follows: HTRF KinEASE-TK in vitro kinase assay, EGFR L858R/T790M (LT). It is filed as biochemical. To be noted: EGFR L858R/T790M kinase inhibition.
Text: as §4, §5, §2, §3

The target in assay [6] is Ba/F3 EGFR-Del19/C797S (Homo sapiens, UniProt P00533, C797S, cells depend on it, form not given). Put plainly: Ba/F3 viability assay (CellTiter-Glo), EGFR-Del19/C797S (DC). To be noted: Ba/F3 EGFR-Del19/C797S anti-proliferation; read-out: BAF3 DC IC50. It is filed as cell-based.
Text: as §1, §2, §3

Ba/F3 EGFR-Del19/C797S, sequence (P00533 with tags, fused parts or gaps DEL746-750/C797S, form open): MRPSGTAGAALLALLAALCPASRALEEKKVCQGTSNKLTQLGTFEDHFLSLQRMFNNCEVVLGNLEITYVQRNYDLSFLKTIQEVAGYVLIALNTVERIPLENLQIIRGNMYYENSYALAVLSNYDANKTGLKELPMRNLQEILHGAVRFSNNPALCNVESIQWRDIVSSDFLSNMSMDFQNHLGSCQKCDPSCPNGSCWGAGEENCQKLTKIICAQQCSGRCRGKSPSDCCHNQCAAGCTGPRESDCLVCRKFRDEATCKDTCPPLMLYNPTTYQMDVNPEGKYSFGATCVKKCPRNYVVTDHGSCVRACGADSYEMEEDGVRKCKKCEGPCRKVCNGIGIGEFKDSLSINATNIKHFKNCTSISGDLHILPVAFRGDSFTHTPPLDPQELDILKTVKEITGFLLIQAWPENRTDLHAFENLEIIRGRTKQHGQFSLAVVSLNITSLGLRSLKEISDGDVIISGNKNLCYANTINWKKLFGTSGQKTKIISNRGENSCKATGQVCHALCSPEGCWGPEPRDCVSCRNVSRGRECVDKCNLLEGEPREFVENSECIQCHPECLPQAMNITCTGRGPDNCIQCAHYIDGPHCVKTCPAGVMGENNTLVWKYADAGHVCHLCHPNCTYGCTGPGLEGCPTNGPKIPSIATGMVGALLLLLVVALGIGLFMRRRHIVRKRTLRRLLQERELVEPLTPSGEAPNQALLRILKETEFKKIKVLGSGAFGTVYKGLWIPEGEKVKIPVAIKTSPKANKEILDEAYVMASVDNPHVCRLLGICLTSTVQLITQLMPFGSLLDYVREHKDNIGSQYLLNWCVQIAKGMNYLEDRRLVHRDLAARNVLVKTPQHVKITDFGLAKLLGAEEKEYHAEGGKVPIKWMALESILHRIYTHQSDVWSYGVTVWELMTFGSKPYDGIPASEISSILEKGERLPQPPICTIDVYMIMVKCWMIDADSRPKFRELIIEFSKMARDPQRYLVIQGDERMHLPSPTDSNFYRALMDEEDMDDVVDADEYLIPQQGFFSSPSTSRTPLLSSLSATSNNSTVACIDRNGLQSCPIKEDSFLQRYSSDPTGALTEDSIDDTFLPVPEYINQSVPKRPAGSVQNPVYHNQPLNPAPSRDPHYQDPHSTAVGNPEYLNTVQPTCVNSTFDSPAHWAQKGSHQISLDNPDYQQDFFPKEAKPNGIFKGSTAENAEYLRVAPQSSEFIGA
Ba/F3 EGFR-Del19/T790M/C797S, sequence (P00533 with tags, fused parts or gaps DEL746-750/T790M/C797S, form open): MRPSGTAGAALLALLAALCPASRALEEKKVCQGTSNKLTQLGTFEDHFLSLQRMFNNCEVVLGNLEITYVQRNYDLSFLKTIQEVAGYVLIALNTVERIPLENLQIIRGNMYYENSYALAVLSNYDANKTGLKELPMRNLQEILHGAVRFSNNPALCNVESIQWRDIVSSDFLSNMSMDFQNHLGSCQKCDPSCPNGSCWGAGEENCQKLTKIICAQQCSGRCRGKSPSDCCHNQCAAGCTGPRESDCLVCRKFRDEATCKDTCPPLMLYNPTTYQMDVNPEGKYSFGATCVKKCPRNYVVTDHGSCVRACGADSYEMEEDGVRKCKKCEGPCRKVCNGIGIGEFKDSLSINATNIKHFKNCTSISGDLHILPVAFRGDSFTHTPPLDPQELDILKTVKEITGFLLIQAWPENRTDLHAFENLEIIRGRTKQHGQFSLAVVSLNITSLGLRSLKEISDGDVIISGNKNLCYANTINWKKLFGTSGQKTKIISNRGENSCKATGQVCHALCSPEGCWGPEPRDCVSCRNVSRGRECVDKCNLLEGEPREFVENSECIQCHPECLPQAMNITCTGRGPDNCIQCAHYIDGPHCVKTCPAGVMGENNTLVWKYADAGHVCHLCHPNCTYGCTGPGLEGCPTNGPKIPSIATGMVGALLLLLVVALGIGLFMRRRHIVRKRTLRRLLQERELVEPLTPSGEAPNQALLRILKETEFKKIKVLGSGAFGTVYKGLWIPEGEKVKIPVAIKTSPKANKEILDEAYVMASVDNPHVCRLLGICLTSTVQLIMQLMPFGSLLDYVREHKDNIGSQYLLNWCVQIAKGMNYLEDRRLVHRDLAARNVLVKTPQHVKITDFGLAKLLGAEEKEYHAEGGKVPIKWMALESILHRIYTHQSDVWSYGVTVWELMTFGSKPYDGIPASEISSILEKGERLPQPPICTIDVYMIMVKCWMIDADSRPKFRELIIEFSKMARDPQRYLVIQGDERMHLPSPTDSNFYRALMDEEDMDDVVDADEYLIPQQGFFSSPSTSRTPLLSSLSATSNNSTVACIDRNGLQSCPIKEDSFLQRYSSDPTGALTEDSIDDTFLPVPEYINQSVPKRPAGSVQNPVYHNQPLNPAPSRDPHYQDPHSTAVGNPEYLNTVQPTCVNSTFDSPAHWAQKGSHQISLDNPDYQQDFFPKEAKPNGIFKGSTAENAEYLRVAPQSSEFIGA
Ba/F3 EGFR-Del19/T790M, sequence (P00533 with tags, fused parts or gaps DEL746-750/T790M, form open): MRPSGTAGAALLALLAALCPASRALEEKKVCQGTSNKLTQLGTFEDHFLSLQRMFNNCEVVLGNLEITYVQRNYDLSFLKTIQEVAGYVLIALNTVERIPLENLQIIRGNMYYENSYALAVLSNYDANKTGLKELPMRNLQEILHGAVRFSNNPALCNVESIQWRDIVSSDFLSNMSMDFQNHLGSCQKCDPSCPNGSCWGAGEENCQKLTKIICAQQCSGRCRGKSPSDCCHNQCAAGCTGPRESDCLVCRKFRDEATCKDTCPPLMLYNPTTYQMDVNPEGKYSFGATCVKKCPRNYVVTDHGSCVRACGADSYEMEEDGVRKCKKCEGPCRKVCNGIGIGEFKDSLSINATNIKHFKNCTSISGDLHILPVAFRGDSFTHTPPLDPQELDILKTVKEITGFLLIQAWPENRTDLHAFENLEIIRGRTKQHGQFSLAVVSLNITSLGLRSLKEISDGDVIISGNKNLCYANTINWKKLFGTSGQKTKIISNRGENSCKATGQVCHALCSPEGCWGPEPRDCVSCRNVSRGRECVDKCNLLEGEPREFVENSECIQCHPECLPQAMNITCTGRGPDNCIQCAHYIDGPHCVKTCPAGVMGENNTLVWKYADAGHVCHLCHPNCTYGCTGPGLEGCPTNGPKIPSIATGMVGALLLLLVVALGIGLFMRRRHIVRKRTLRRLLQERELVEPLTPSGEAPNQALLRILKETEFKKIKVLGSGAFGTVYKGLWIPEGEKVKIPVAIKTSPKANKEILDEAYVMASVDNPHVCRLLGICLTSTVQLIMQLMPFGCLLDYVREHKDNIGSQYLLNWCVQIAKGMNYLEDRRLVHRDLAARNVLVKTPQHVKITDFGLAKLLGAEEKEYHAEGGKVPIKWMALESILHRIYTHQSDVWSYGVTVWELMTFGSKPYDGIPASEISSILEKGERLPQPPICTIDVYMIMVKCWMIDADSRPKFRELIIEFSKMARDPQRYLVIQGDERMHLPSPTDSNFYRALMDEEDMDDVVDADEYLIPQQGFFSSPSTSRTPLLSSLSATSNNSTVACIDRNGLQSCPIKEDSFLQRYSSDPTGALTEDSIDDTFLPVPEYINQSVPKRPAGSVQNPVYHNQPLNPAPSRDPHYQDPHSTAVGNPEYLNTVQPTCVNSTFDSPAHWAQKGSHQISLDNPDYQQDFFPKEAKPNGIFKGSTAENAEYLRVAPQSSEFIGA
EGFR^L858R, sequence (P00533 25-1210 L858R): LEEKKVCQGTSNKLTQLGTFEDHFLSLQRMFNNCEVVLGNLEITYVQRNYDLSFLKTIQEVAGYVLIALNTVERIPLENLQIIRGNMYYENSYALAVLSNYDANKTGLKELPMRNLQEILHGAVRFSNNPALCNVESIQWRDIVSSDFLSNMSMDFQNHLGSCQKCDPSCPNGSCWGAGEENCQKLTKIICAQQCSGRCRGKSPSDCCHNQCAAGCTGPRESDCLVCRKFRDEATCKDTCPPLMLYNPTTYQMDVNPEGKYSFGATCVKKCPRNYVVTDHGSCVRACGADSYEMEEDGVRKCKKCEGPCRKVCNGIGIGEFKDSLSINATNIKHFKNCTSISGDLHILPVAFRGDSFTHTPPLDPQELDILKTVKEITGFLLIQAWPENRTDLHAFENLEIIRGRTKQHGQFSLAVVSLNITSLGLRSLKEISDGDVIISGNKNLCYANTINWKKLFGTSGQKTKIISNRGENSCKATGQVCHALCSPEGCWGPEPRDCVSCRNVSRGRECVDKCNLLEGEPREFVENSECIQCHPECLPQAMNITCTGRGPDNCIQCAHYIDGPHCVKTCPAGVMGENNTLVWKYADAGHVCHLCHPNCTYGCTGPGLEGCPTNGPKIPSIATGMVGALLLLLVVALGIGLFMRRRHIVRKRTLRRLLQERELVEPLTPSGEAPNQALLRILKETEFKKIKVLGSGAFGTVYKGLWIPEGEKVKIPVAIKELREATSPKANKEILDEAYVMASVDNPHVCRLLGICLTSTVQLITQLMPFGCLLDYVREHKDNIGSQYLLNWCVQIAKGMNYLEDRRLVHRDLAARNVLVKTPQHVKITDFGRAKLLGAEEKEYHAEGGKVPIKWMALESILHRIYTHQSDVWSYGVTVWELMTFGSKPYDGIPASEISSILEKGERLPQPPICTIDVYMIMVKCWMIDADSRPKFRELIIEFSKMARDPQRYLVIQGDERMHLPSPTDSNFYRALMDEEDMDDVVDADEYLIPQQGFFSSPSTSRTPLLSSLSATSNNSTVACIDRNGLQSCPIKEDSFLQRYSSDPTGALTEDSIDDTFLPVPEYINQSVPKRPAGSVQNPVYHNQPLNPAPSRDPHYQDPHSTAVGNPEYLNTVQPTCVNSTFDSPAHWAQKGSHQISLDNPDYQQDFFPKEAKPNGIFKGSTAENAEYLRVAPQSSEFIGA

For the compound `C[C@H]1CCOc2c(cnn2C)-c2nccc(n2)Nc2cc(ccn2)O1` [(153)], the GI50 in assay [1], in assay [3] and in assay [6] was 100 to 1000 nM each time. Moreover, the IC50 is under 50 nM in assay [2], 100 to 1000 nM in assay [4] and under 50 nM in assay [5].
`C[C@H]1CCOc2c(cnn2C)-c2nccc(n2)Nc2cc(c(-c3cccc(CN4CCN(C)CC4)c3)cn2)O1` [(159)]: the GI50 in assay [1], in assay [3] and in assay [6] was under 50 nM in each case. In addition, the IC50 in assay [2], in assay [4] and in assay [5] was under 50 nM in each case.
Take `C[C@H]1CCOc2c(cnn2C)-c2nccc(n2)Nc2cc(c(-c3ccc(CN4CCN(C)CC4)cc3)cn2)O1` [(160)]: the GI50 in assay [1], in assay [3] and in assay [6] was under 50 nM in each case. For the same compound, the IC50 in assay [2], in assay [4] and in assay [5] was under 50 nM each time.
In the case of `CC1CCOc2c(cnn2C)-c2nccc(n2)Nc2cc(c(-c3ccc(CN4CCN(C)CC4)cc3)cn2)O1` (stereo not drawn) [(169), 5,10-dimethyl-13-[4-[(4-methylpiperazin-1-yl)methyl]phenyl]-7,11-dioxa-4,5,15,17,21,22-hexazatetracyclo[16.3.1.112,16.02,6]tricosa-1(22),2(6),3,12(23),13,15,18,20-octaene], the GI50 in assay [1], in assay [3] and in assay [6] was under 50 nM each time. Further, the IC50 in assay [2], in assay [4] and in assay [5] was under 50 nM in each case.
